Assays:
[1] = test system: inducible NO-synthase (NOS2); assay: Modulation of the induction of NOS2 on normal human keratinocytes (NO-donor activity, nitrite/nitrate measurement); assay type: cell-based; conditions: for % inhibition: nitrites and nitrates measured; for NO-donating effect: conclusion from the table
Experimental: The activity of compounds A and A′ on inducible NO-synthase was evaluated in the test described by Heck et al. (J. B. C., Vol. 267, No. 30, 21277-21280, 25 Oct. 1992), test of “Modulation of the induction of NOS2 (Inducible Nitric Oxide Synthase) on normal human keratinocytes”. The aim of this test is to evaluate the final nitrate and nitrite concentration, after stimulation of NO-synthase 2 or application of an NO donor; it is performed by comparison with the stimulation of cytokine-inducible NO-synthase. The final nitrate and nitrite concentration corresponds to the concentration of NO released.
The test is performed on a culture of normal human keratinocytes obtained from samples. The induction of inducible NO-synthase (NOS2) was brought about by the addition of a combination of several cytokines to the culture medium. The test products were applied at three concentrations ranging from […] to 1000 μM.
The following controls were introduced into the test: • A: Positive control (induction of the enzyme on stimulated cells): mixtures of interferon-γ (1000 μ/ml) and of interleukin 1-β (100 μ/ml) corresponding to […]; • B: Basal control of the unstimulated cells (without cytokines), corresponding to […].
To determine the activity of the test products, the amount of stable NO reaction products (nitrites and nitrates) is measured using the “Nitric Colorimetric Assay” kit sold by the company Boehringer under the reference 1756.28.
The compounds were tested at concentrations of 100 μM, 500 μM and 1000 μM in ethanol.

lysyl-hydroxylase = conditions: described in WO 96/09048; cited from earlier work
[2] = test system: lysyl-hydroxylase messenger RNA; assay: Inhibition of the expression of LH (RT-PCR) in normal human dermal fibroblasts; assay type: cell-based; conditions: for inhibition of the expression of lysyl-hydroxylase messenger RNA: human fibroblasts in culture, compound 1′ at 10 μM; for LH/actine ratio: percentage of expression of LH over β-Actin internal standard; for LH/actine ratio / LH/collagen ratio: control = 100, NHDF treated 6 hours; for LH/collagen ratio: percentage of expression of LH relative to collagen messenger RNA
Experimental: Normal human dermal fibroblasts (NHDF) are precultured at high density for 48 hours in MEM199 medium (Gibco) supplemented with 1% foetal calf serum and then treated or not treated with compound 1′ or 1 for 6 hours. The cell carpets are then washed with phosphate-buffered saline (PBS) and then frozen in Tri-reagent medium (Sigma). The total RNAs obtained are extracted with Tri-reagent (Sigma) according to the supplier's protocol. A further extraction is performed using chloroform and the RNAs are then precipitated from isopropanol. After removal of the contaminating traces of DNA by treatment with the DNA-free system (Ambion), a reverse transcription of the RNAs into complementary DNA is performed in the presence of oligo dT and the enzyme superscript II (Gibco).
A pair of primers allowing the amplification of specific LH fragments (516 bp; Mahéet al., 1996, Skin Pharmacol. 9, 177-183) and of specific primers of the sequence of collagen I (420 pb) and β-Actin (500 bp, internal reaction standard) were used for the polymerization chain reaction (PCR) with the PCR Supermix system (Gibco) under the following conditions: 94° C. for 2 minutes and then 25 times (95° C.-1 min, 55° C.-1 min, 72° C.-2 min), the chain reaction being terminated by an elongation cycle of 7 minutes at 72° C.
The amplified fragments are then analysed by electrophoresis on agarose gel (1.5%) in the presence of ethidium bromide. The images were captured on GelPrint 2000i (Biophotonics Corp); the densitometric analyses were obtained using the One D-Scan software (Scanalytics).
The results are expressed as a percentage of expression of LH over the β-Actin internal standard (LH/actine) or relative to the collagen messenger RNA (LH/collagen). A reduction of one or of the two percentages indicates a transcriptional inhibition of the relative expression of lysyl hydroxylase and, by analogy, with the molecule 2-4 DPO, (Mahéet al. 1996, Skin Pharmacol. 9. 177-183) a possible use for limiting the abnormal crosslinking of collagen in alopecia.

type L calcium-channel = conditions: read-out: IC50Ca2+ (concentration that inhibits 50% of the release of Ca2+); cited from earlier work
[3] = 100 μM in ethanol, 100 = cytokine-stimulated control A, 0 = unstimulated control B

SMILES	% inhibition [1, 3]	NO-donating effect [1]	inhibition of the expression of lysyl-hydroxylase messenger RNA [2]	LH/actine ratio [2]	LH/collagen ratio [2]	also measured
Nc1nccc(NCCO[N+](=O)[O-])[n+]1[O-] [Compound 2]	38.77%	have an NO-donating effect				
Nc1cc[n+]([O-])c(N)n1 [aminexil, 2,4-diaminopyrimidine N-oxide]						inhibitory activity on the expression of lysyl-hydroxylase (lysyl-hydroxylase): has inhibitory activity on the expression of lysyl-hydroxylase
Nc1nccc(NCCCO[N+](=O)[O-])[n+]1[O-] [Compound 3]		have an NO-donating effect				
Nc1nccc(NCCCCO)[n+]1[O-] [Compound 1′]			−24% to −36%	64%	76%	
Nc1nccc(NCCCCO[N+](=O)[O-])[n+]1[O-] [Compound 1]	0%	have an NO-donating effect	no inhibitory activity	123%	133%	% inhibition ([1]; 500 μM in ethanol, 100 = control A, 0 = control B, NE means no effect): 18.23%
COc1ccc(CCN(C)CCCC(C#N)(c2ccc(OC)c(OC)c2)C(C)C)cc1OC (centres unmarked) [verapamil]						IC50 (type L calcium-channel): 0.038 µM
